In ChEMBL document CHEMBL1132789, “Synthesis and estrogen receptor binding affinities of novel pyrrolo[2,1,5-cd]indolizine derivatives” (Bioorg Med Chem Lett, 2000):

Biological target: Estrogen receptor (Homo sapiens, UniProt Q92731+P03372)
Description: Inhibitory activity against Estrogen receptor by displacement of [3H]17-beta-estradiol in ER-rich cytosol from rabbit uterine tissue

SMILES	IC50
Oc1ccc(-c2cc3cccc4ccc2n43)cc1	700 nM
CCc1c(-c2ccc(O)cc2)c2ccc3cccc1n32	9.5 nM
CCc1c(-c2ccccc2)c2ccc3c(O)ccc1n32	180 nM
Oc1ccc(C2=c3ccc4n3C3C(=CC=4)CCCCC23)cc1 (stereo unspecified)	25 nM
CCCCC1C(c2ccc(O)cc2)=c2ccc3n2C1C=CC=3 (stereo unspecified)	200 nM
CCc1c(-c2ccc(O)cc2)c2ccc3ccc(CO)c1n32	12 nM
CC(C)c1c(-c2ccc(O)cc2)c2ccc3cccc1n32	8 nM
CCCc1c(-c2ccc(O)cc2)c2ccc3cccc1n32	5 nM
Oc1ccc(C2=c3ccc4n3C(C=CC=4)C2CCc2ccccc2)cc1 (stereo unspecified)	180 nM
CCc1c(-c2ccc(O)cc2)c2ccc3c(O)ccc1n32	0.9 nM
CCc1c(-c2cccc(O)c2)c2ccc3cccc1n32	370 nM
CCCC(C)C1C(c2ccc(O)cc2)=c2ccc3n2C1C=CC=3 (stereo unspecified)	950 nM
Cc1c(-c2ccc(O)cc2)c2ccc3cccc1n32	28 nM
CCc1c(-c2ccccc2)c2ccc3cc(O)cc1n32	1300 nM
Oc1ccc(C2=c3ccc4n3C3C(=CC=4)CCCC23)cc1 (stereo unspecified)	30 nM
CCc1c(-c2ccc(O)cc2)c2ccc3cc(O)cc1n32	0.9 nM
